Test results from patent publication US6734182B2, “Aryl sulfonamides and sulfamide derivatives and uses thereof” (Synaptic Pharmaceutical Corporation, priority 1995, dated 2004).

What was measured:
[1] = test system: NPY-induced feeding behavior in satiated rats; experiment: NPY-induced food intake in satiated rats; format: in vivo, rat; conditions: compound 30 mg/kg i.p., then 300 pmole NPY i.c.v., 4 hours after NPY, in g (unit assumed)
Procedure: For these determinations food intake maybe measured in normal satiated rats after intracerebroventricular application (i.c.v.) of NPY in the presence or absence of the test compound. Male Sprague Dawley rats ciba-Geigy AG, Sisseln, Switzerland weighing between 180 g and 220 g are used for all experiments. The rats are individually housed in stainless steel cages and maintained on an 11:13 h light-dark cycle (lights off at 18:00 h) at a controlled temperature of 21-23° C. at all times. Water and food (NAFAG lab chow pellets, NAFAG, Gossau, Switzerland) are available ad libidum.
Rats under pentobarbital anesthesia are stereotaxically implanted with a stainless steel guide cannula targeted at the right lateral ventricle. Stereotaxic coordinates, with the incisor bar set −2.0 mm below interaural line, are: −0.8 mm anterior and +1.3 mm lateral to bregma. The guide cannula is placed on the dura. […]
Food intake may be measured by placing preweighed pellets into the cages at the time of NPY injection. […] The food intake of animals treated with test compound may be calculated as a percentage of the food intake of control animals, i.e., animals treated with vehicle. Alternatively, food intake for a group of animals subjected to the same experimental condition may be expressed as the mean ±S.E.M. Statistical analysis is performed by analysis of variance using the Student-Newman-Keuls test. […]

5HT1a = 5HT1a (Homo sapiens, UniProt P08908); experiment: Binding to cloned human 5HT1a receptor
human Y1 receptor = target: T1, human Y1 receptor (Homo sapiens, UniProt P25929); experiment: Radioligand binding to cloned human Y1 receptor (125I-PYY); conditions: cloned human Y1, stably transfected cells, read-out: Binding Affinity (K1 (nM) vs. 125I-PYY) Human Receptor Y1
T1 construct: expressed in transfected cells
T1 sequence (P25929 1-384): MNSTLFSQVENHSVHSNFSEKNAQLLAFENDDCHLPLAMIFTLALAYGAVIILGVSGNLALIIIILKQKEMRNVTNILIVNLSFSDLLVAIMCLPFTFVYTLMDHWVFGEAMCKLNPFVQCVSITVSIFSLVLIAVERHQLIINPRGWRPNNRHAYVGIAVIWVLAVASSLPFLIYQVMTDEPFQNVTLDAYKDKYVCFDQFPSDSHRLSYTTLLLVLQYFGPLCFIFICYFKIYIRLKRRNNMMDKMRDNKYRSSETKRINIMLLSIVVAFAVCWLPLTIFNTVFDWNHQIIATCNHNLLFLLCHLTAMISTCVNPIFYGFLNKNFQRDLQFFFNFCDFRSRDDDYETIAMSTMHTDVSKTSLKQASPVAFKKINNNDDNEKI
Procedure: Membranes were harvested from COS-7 cells 48 hours after transient transfection. […] Large particles and debris were cleared by low speed centrifugation (200 x g, 5 min, 4° C.). […] Membranes were held on ice for up to one hour and used fresh, or flash-frozen and stored in liquid nitrogen.
Incubations were terminated by filtration over Whatman GF/C filters (pre-coated with 1% polyethyleneimine and air-dried before use), followed by washing with 5 mL of ice-cold binding buffer.

[2] = target: T2, human histamine H2 receptor (Homo sapiens, UniProt P25021); experiment: Binding to human histamine H2 receptor ([3H]tiotidine); conditions: cloned human receptor
T2 construct: expressed in transfected cells; host or cells: COS-7 cells, transient (DEAE-dextran), plasmid pcEXV-H2 (ATCC 75345)
Procedure: The binding of the histamine H2 antagonist [^3H]tiotidine (5 nM, specific activity: 70 Ci/mM) was done in a final volume of 0.25 ml and incubated at room temperature for 60 min. Nonspecific binding was determined in the presence of 10 μM histamine.

human α2C receptor = target: T3, human α2C receptor (Homo sapiens, UniProt P18825); experiment: Binding to cloned human α2C adrenergic receptor ([3H]rauwolscine)
T3 construct: expressed in transfected cells
T3 sequence (P18825 whole entry): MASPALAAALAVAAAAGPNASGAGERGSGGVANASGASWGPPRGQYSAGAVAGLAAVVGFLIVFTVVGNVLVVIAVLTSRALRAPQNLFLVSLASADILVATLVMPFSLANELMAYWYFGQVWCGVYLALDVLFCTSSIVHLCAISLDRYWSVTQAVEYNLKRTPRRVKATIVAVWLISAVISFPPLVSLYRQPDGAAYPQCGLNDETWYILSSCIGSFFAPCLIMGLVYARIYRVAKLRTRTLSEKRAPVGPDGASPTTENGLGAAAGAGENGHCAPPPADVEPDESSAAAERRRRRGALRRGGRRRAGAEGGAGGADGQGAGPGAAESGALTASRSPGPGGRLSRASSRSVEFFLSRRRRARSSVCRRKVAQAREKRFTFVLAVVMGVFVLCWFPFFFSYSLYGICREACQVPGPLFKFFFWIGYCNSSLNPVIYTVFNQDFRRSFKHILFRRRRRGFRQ
Procedure: α2 Human Adrenergic Receptors: To determine the binding of compounds to human α2 receptors, LM(tk−) cell lines stably transfected with the genes encoding the α2A, α2B, and α2C receptors were used. […] Cell lysates were prepared as described below (see Radioligand Dinding to Membrane Suspensions), and suspended in 25 mM glycylglycine buffer (pH 7.6 at room temperature). Equilibrium competition binding assay were performed using [^3H]rauwolscine (0.5 nM), and nonspecific binding was determined by incubation with 10 μM phentolamine.

T2 sequence (P25021 whole entry): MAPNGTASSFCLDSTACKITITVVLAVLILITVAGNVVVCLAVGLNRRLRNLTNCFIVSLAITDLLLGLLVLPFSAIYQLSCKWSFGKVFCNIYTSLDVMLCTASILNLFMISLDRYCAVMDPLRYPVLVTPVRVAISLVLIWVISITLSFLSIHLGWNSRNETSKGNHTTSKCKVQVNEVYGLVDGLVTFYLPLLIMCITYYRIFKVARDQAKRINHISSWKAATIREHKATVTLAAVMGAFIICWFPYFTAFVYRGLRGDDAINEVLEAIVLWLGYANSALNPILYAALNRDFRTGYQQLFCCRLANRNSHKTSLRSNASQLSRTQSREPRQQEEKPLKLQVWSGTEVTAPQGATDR
5HT1a, sequence (P08908 whole entry): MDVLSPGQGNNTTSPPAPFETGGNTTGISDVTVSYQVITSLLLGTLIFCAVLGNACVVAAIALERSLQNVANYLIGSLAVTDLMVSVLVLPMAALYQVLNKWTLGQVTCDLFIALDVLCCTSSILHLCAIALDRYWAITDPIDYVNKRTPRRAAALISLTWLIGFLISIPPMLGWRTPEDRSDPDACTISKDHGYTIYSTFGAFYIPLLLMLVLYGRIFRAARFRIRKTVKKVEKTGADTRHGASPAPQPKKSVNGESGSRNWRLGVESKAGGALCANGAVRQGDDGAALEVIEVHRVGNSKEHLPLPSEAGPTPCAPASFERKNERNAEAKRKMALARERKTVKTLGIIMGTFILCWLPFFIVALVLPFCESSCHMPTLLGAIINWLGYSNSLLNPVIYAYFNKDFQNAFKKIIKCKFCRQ

SMILES | NPY-induced cumulative food intake (NPY + compound), mean ± S.E.M. [1] | Receptor (pKi) 5HT1a (5HT1a) | Ki (human Y1 receptor) | Receptor (pKi) H2 [2] | Receptor (pKi) α2c (human α2C receptor)
Cl.O=S(=O)(NCC1CCC(CNCC2CCc3ccccc3C2)CC1)c1cccc2ccccc12 (stereo not drawn) [Example 32] | 1.5 ± 0.6 | 5.54 | 3550 nM | – | –
Cl.O=[N+]([O-])c1ccccc1S(=O)(=O)NCC1CCC(CNCC2CCc3ccccc3C2)CC1 (stereo not drawn) [Example 36] | – | – | 16000 nM | 5.85 | 7.39
